In patent US20200023001A1, “GlycoFix (Structurally And Functionally Repaired Endothelial Glycocalyx)” (Northeastern University, priority 2018, published 2020):

How the values were obtained:
[1] = tested on: heparan sulfate (HS) of RFPEC glycocalyx; test: HS expression (coverage) in RFPEC glycocalyx by immunofluorescence confocal microscopy (Example 1); format: cell-based, rat
Experimental: (§1) Cell Culture. Rat fat pad ECs (RFPEC) at passages 20 to 39 were offspring of cells isolated from rat epididymal fat pad and provided by Dr. Mia Thi of Albert Einstein College of Medicine (Bronx, N.Y.). […] The RFPECs are immortalized, making it possible to use late passages. RFPEC were seeded on 12-14-mm diameter and 0.13-0.17-mm thick glass coverslips at a seeding density of 15,000-20,000 cells/cm^2. Cells were cultured in Dulbecco's Modified Eagle Medium (DMEM, Invitrogen, USA) with 1% penicillin-streptomycin (PS) and 10% fetal bovine serum (FBS, Gibco Life Technologies). Cells were maintained in humidity at 37° C. and 5% CO2. RFPECs reached full confluence in 3 days.
(§2) Cultured RFPECs produce thick and robust GCX in this time period. At 3 days post-seeding the RFPECs' culture medium was supplemented with 1% BSA in place of FBS to stabilize the GCX during preservation and immunolabeling (described below). For enzyme treatment experiments, 25 micro-international units per milliliter (μIU/ml) of heparinase III (Hep III; IBEX, Canada) were added to BSA-containing culture media for 2 hours to degrade HS from the GCX [46]. HepIII was washed out, and the wash-out was followed by a 16-hour incubation of RFPECs in regular BSA-containing media. In self-recovery experiments, RFPEC GCX was left to recover for 24 hours after enzyme degradation. The time frame was chosen in accordance with the 20-hour time period that is required for HS restoration to occur on the surface of ECs. For HS recovery experiments, exogenous HS and/or S1P were applied for 16 hours to accommodate the communication test as an assessment of functional glycocalyx recovery. […] After HS was degraded with HepIII, it was replaced by a 16-hour feeding of RFPECs with 59 μg/ml exogenous porcine mucosal HS (Celsus, Cincinnati, Ohio), based on published serum concentration of HS [43]. In sphingosine-1-phosphate experiments, culture media containing enzyme was substituted for media containing either 10 μM of S1P (Sigma-Aldrich) or a combination of 59 μg/ml of HS and 10 μM of S1P for 16 hours after enzyme degradation.
Immunostaining. RFPECs have high affinity to most antibodies that are available for performing immunocytochemistry. For heparan sulfate (HS), RFPEC monolayers were treated with 2% paraformaldehyde/1% glutaraldehyde in phosphate buffered saline (PBS) for fixation, treated with 2% goat serum in PBS to block non-specific ligands, and stained for three nights at 4° C. with a 1:100 10E4-epitope HS antibody (Amsbio).
As specified by the manufacturer, the HS antibody reacts with many types of heparan sulfate. The reactivity of the HS antibody is abolished after treatment with Hep III, indicating antibody specificity. […]

[2] = tested on: Cx-containing gap junctions of RFPEC; test: Lucifer Yellow scratch-loading dye transfer assay (gap junction communication); format: cell-based, rat
Experimental: as §1, §2
Dye transfer assay, fluorescence microscopy and image analysis. Gap junction functionality was assessed by loading Lucifer Yellow in RFPECs, using a scratch technique, and observing the extent of Lucifer Yellow transfer from loaded cells to neighboring cells (FIG. 7B). Lucifer Yellow has a molecular weight of 457.3 and can only enter cells via broken membranes or via gap junctions. The scratch loading technique involved pre-incubation of RFPECs (for 1 minute) with calcium- and magnesium-free Hanks' Balanced Salt Solution (HBSS; Life Technology) containing 5 mg/ml Lucifer Yellow dye (Life Technology). A 5-μm diameter tip scribe (Ted Pella, Inc, USA) was then used to carefully create a straight scratch in the RFPEC monolayer and to allow the dye to enter the scratched cells. After the dye was loaded, it spread via open gap junctions to adjacent intact cells, with the extent of Lucifer Yellow spread reaching a plateau by 10 minutes after loading. At that point, excess dye was washed out and RFPECs were imaged at 10× magnification (dry objective) using a Zeiss Observer Z1 fluorescence microscope. From recorded images of dye transfer after scratch loading, ImageJ randomly selected dye spread locations that would be quantified along the scratch. At those random locations, lines perpendicular to the scratch axis were drawn, and the intact fluorescent cells (scratched cells excluded) were counted. […]

heparan sulfate [HS]
HS expression in GCX, result in words (FIG. 2 legend) ([1]; 25 μIU/ml Hep III, HS 59 μg/ml, S1P 10 μM): significant recovery of HS back to baseline conditions | HS coverage of cell surfaces ([1]; RFPEC, Hep III 2 hours, probed 16 hours after, with or without 59 μg/ml exogenous HS and/or 10 μM S1P for the 16 hours, mean±SEM): 65.58±2.26% | Lucifer Yellow dye spread, neighboring cells receiving dye per scratch-loaded cell ([2]; RFPEC, Hep III, then 16 h with or without 59 μg/ml HS and/or 10 μM S1P, mean±SEM): 1.03±0.07 cells | Lucifer Yellow dye transfer, result in words (FIG. 4 legend) ([2]; after Hep III, HS 59 μg/ml, S1P 10 μM): Not much Lucifer Yellow dye transfer improvement
